From the NIST ThermoML archive (doi:10.1021/je100912t)
± gives the expanded uncertainty stated by the source.

Key:
[1] = Liquid; for mass density: 298.15 K, 101.33 kPa, Pycnometric method; for vapor or sublimation pressure: Ebulliometric method (Recirculating still)
[2] = refractive index (Na D-line) (dimensionless); conditions: 298.15 K; 101.33 kPa; Liquid; Standard Abbe refractometry

| Structure (SMILES) | mass density [1] [kg/m3] | vapor or sublimation pressure ([1]; 370.27 K) [kPa] | refractive index [2] | vapor or sublimation pressure ([1]; 321.18 K) [kPa] | vapor or sublimation pressure ([1]; 412.91 K) [kPa] |
| --- | --- | --- | --- | --- | --- |
| CCCO [propan-1-ol] | 803.62 ± 0.71 | 101.33 ± 1 | 1.3856 ± 0.0004 |  |  |
| CCC=O [propanal] | 797.21 ± 0.7 |  | 1.3634 ± 0.0004 | 101.33 ± 1 |  |
| CCC(=O)O [propanoic acid] | 992.86 ± 0.88 |  | 1.3858 ± 0.0004 |  | 101.33 ± 1 |
